Measurements from ChEMBL document CHEMBL1212839 (J Med Chem, 2010).

Key:
Mu-type opioid receptor [1] = target: T1, Mu-type opioid receptor (Rattus norvegicus, UniProt P33535); assay: Displacement of [3H]DPDPE from rat mu opioid receptor
Mu-type opioid receptor [2] = target: T1, Mu-type opioid receptor; assay: Agonist activity at rat mu opioid receptor expressed in mouse HN9.10 cells assessed as [35S]GTPgammaS binding; assay type: functional, cell-based
[3] = target: T2, Delta-type opioid receptor (Homo sapiens, UniProt P41143); assay: Displacement of [3H]DPDPE from human delta opioid receptor
[4] = target: T2, Delta-type opioid receptor; assay: Agonist activity at human opioid delta receptor expressed in mouse HN9.10 cells assessed as [35S]GTPgammaS binding; assay type: functional, cell-based
[5] = target: Mu-type opioid receptor (Cavia porcellus) (UniProt P97266); details: Ileum, 1 uM
Substance-P receptor = Substance-P receptor (Homo sapiens, UniProt P25103); assay: Displacement of [3H]substance P frome human NK1 receptor
[6] = target: Substance-P receptor (Cavia porcellus) (UniProt P30547); details: Ileum
[7] = target: T3, Delta-type opioid receptor (Mus musculus, UniProt P32300)
[8] = target: Mu-type opioid receptor (Rattus norvegicus) (UniProt P33535); assay: Agonist activity at rat mu opioid receptor expressed in mouse HN9.10 cells assessed as [35S]GTPgammaS binding relative to control; assay type: functional, cell-based
[9] = target: T3, Delta-type opioid receptor; remark: listed apart in the source

Sequence of Mu-type opioid receptor (Cavia porcellus) (P97266 whole entry): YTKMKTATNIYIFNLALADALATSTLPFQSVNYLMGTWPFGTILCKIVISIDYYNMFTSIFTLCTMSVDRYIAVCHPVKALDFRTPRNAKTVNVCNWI
T2 sequence (P41143 whole entry): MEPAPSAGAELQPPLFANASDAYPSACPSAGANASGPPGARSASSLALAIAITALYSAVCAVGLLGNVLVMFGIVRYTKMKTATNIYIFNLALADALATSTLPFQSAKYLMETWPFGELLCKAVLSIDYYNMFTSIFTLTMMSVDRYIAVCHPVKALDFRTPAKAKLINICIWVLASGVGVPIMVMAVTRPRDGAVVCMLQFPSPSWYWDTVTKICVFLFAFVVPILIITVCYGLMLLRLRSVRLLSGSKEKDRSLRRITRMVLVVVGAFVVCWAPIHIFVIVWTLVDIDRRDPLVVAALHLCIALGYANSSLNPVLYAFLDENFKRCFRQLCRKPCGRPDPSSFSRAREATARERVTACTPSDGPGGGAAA
T1 sequence (P33535 whole entry): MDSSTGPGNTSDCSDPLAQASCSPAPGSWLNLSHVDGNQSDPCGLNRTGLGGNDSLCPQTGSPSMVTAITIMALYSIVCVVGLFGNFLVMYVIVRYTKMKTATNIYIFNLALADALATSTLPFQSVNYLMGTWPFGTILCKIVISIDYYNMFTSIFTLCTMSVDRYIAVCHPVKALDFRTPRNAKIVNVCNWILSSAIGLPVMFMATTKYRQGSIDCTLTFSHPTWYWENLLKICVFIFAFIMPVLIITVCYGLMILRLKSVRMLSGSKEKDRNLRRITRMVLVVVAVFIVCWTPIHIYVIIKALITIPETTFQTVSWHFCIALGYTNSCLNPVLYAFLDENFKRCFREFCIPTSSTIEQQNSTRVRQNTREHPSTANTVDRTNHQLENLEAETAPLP
Sequence of Substance-P receptor (P25103 whole entry): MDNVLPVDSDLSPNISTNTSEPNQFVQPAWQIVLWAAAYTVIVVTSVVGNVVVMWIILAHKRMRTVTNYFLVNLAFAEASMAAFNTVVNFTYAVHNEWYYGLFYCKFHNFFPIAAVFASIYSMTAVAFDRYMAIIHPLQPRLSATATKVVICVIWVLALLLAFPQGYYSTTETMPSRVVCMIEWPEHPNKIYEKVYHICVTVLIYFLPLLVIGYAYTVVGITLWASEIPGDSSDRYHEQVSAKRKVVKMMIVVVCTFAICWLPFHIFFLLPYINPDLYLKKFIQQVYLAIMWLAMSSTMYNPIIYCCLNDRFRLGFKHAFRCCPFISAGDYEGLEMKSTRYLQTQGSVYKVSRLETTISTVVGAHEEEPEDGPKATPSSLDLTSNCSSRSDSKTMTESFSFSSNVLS
T3 sequence (P32300 whole entry): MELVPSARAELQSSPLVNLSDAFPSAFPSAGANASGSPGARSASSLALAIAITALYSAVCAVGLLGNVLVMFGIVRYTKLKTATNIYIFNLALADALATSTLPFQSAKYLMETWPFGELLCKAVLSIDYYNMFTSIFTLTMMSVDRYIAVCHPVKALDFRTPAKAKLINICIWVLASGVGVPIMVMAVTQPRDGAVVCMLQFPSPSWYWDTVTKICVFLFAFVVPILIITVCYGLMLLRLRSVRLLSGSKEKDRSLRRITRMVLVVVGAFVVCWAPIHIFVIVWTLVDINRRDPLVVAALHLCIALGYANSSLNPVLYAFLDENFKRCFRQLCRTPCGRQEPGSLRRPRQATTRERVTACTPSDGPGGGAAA
Sequence of Substance-P receptor (Cavia porcellus) (P30547 whole entry): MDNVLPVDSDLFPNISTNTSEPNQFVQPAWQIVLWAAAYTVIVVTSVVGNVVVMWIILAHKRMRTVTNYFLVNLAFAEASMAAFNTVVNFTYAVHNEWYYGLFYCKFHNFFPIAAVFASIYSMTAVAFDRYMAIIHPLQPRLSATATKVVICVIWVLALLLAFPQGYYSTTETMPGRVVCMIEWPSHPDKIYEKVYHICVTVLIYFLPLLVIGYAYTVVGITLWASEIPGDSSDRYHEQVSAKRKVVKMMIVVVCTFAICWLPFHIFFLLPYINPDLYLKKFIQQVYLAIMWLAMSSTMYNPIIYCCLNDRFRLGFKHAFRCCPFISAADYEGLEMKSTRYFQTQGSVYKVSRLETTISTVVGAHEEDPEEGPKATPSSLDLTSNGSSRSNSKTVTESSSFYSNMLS
Sequence of Mu-type opioid receptor (Rattus norvegicus) (P33535 whole entry): as the sequence (P33535 whole entry) above

| SMILES | IC50 (Mu-type opioid receptor [1]) [nM] | Ki (Mu-type opioid receptor [1]) [nM] | EC50 (Mu-type opioid receptor [2]) [nM] | IC50 [3] [nM] | Ki [3] [nM] | EC50 [4] [nM] | inhibition [5] [%] | IC50 (Substance-P receptor) [nM] | Ki (Substance-P receptor) [nM] | Ke [6] [nM] | pIC50 (Mu-type opioid receptor [1]) | pEC50 (Mu-type opioid receptor [2]) | pIC50 [3] | IC50 [7] [nM] | pIC50 (Substance-P receptor) | Emax [8] [%] | IC50 [9] [nM] |
| --- | --- | --- | --- | --- | --- | --- | --- | --- | --- | --- | --- | --- | --- | --- | --- | --- | --- |
| CC(C)C[C@H](NC(=O)[C@@H]1CCCN1C(=O)[C@H]1NC(=O)[C@H](Cc2ccccc2)NC(=O)CNC(=O)[C@@H](NC(=O)[C@@H](N)Cc2ccc(O)cc2)C(C)(C)SSC1(C)C)C(=O)N[C@@H](Cc1c[nH]c2ccccc12)C(=O)NCc1cc(C(F)(F)F)cc(C(F)(F)F)c1 | 4170 | 2100 | 130 | 72.4 | 38 | 120 | 0.6 | 0.417 | 0.18 | – | – | – | – | – | – | – | – |
| CCCC[C@@H]1NC(=O)[C@H](Cc2ccccc2)NC(=O)CNC(=O)[C@@H](NC(=O)[C@@H](N)Cc2ccc(O)cc2)C(C)(C)SSC(C)(C)[C@H](C(=O)N2CCC[C@H]2C(=O)N[C@@H](CC(C)C)C(=O)N[C@@H](Cc2c[nH]c3ccccc23)C(=O)NCc2cc(C(F)(F)F)cc(C(F)(F)F)c2)NC(=O)[C@@H]2CCCN2C1=O | – | 2000 | 2900 | – | 150 | 530 | 6 | – | 59 | 72 | 5.43 | 5.67 | 6.5 | 250 | 6.87 | 15 | – |
| CC(C)C[C@H](NC(=O)[C@@H]1CCCN1C(=O)[C@@H]1NC(=O)[C@H](Cc2ccccc2)NC(=O)CNC(=O)[C@@H](NC(=O)[C@@H](N)Cc2ccc(O)cc2)C(C)(C)SSC1(C)C)C(=O)N[C@@H](Cc1c[nH]c2ccccc12)C(=O)NCc1cc(C(F)(F)F)cc(C(F)(F)F)c1 | – | – | – | – | – | – | 26 | – | – | – | – | – | – | – | – | – | – |
| CC(C)C[C@H](NC(=O)[C@@H]1CCCN1C(=O)[C@H]1NC(=O)[C@H](Cc2ccccc2)NC(=O)CNC(=O)[C@H](NC(=O)[C@@H](N)Cc2ccc(O)cc2)C(C)(C)SSC1(C)C)C(=O)N[C@@H](Cc1c[nH]c2ccccc12)C(=O)NCc1cc(C(F)(F)F)cc(C(F)(F)F)c1 | 4370 | – | – | 3.63 | – | – | – | 0.0123 | – | – | – | – | – | – | – | – | – |
| CCCC[C@@H]1NC(=O)[C@H](Cc2ccccc2)NC(=O)CNC(=O)[C@@H](NC(=O)[C@@H](N)Cc2ccc(O)cc2)C(C)(C)SSC(C)(C)[C@@H](C(=O)N2CCC[C@H]2C(=O)N[C@@H](CC(C)C)C(=O)N[C@@H](Cc2c[nH]c3ccccc23)C(=O)NCc2cc(C(F)(F)F)cc(C(F)(F)F)c2)NC(=O)[C@@H]2CCCN2C1=O | 2040 | 1000 | 140 | 1380 | 720 | 120 | 7 | 4.27 | 1.9 | 66 | – | – | – | – | – | 26 | 1100 |
